Measured values: patent US9662322B2 (TEVA PHARMACEUTICAL INDUSTRIES, LTD., priority 2014, dated 2017)

Test system: subjects with relapsing remitting multiple sclerosis (RRMS)
Test: ALLEGRO Phase III trial: disability endpoints (EDSS, MSFC)
Type: in vivo, human
Conditions: for Time to confirmed (3 Ms) progression - EDSS, patients progressed: 24 months
Source text: Secondary endpoints were disability progression as measured by the EDSS and the Multiple Sclerosis Functional Composite (MSFC). Confirmed disability progression was defined as an increase of ≧1.0 EDSS point from baseline if baseline EDSS was between 0 and 5.0, or an increase of ≧0.5 point if baseline EDSS was ≧5.5. In order to confirm EDSS progression, these increases had to be sustained for at least three months. Additional predefined disability endpoints include the proportion of patients without confirmed disability progression at 24 months; confirmed disability progression (defined as change in EDSS scores ≧1.0 points for baseline EDSS 0 to 5.0 or ≧5.5) sustained for six months; the accumulation of physical disability as measured by mean EDSS and the mean change in EDSS from baseline to last observed value (LOV). For the MSFC, the measure was the total MSFC z score at 24 months (including patients who terminated after 12 months). The 9-hole peg test (9HPT) and the Paced Auditory Serial Addition Test (PASAT) were performed three times at screening to reduce confounding training effects during the trial. • 1. Accumulation of physical disability measured by the time to confirmed progression of EDSS during the study period (A confirmed progression of EDSS is defined as a 1 point increase from baseline on EDSS score if baseline EDSS was between 0 and 5.0, or a 0.5 point increase if the baseline EDSS was 5.5, confirmed 3 months later. Progression cannot be confirmed during a relapse). • 2. Disability, as assessed by the MSFC score at the end of the treatment period (month 24/30). • 3. The cumulative number of new T2 lesions on scans taken on months 12 and 24 (and 30 in the case of the 6 months extended study). • 4. The cumulative number of enhancing lesions on T1-weighted images taken on months 12 and 24 (and 30 in case of extending the study for 6 months.) Safety and Tolerability Outcome Measures • 1. Adverse events. • 2. Vital signs. • 3. Weight. • 4. Physical examination. • 5. Electrocardiogram (ECG) findings. • 6. Clinical laboratory parameters. • 7. Proportion of subjects (%) who prematurely discontinued from the study, reason of discontinuation and the time to withdrawal. • 8. Proportion of subjects (%) who prematurely discontinued form the study due to AEs and the time to withdrawal. […] To control against type-I error, the secondary endpoints were analyzed only after a significant effect was found for the primary endpoint. […] The MSFC at month 24 was analyzed using a baseline-adjusted ANCOVA (SAS@PROC GLM) with baseline MSFC as 1 degree of freedom covariate and baseline EDSS score, log of the 2-year prior relapse rate +1 and country or geographical region as additional covariates. […]

Q: Which “Time to confirmed (3 Ms) progression - EDSS, patients progressed” value does the source give for CCN(C(=O)c1c(O)c2c(Cl)cccc2n(C)c1=O)c1ccccc1 [Laquinimod, laquinimod] here?
A: Its value is 9.8% progressed.

Q: And the “Time to confirmed (3 Ms) progression - EDSS, patients progressed” value (listed as laquinimod)?
A: Its value is 9.8 % progressed.

Q: What about the “EDSS score at LOV, median” value (last observed value) of the same molecule?
A: The value was 2.5.

Q: What about the “MSFC total z scores at 24 months, Effect: reduction of risk to progress” value (vs placebo) of the same molecule?
A: The value was 34% reduction of.
